Data as given in patent publication US20090068143A1, “ORALLY EFFECTIVE C[…]” (priority 2005, published 2009).
Marks after values point to notes of the source that are not given here.

Legend:
visceral pain = assay: Visceral pain, acetic acid induced writhing responses; format: in vivo, ICR mice; details: for number of writhing responses: alone or combined with 0.5 mg/kg CPZ; for reduction of writhing responses as compared to vehicle treated animals: second study
Protocol: For the i.v. part of the study, compounds were dissolved in CREMOPHOR®:Ethanol and diluted 1:20 in saline prior to injection, fifteen minutes before pain induction. When compounds were delivered per os, they were dissolved in phosphate buffer or in CREMOPHOR®:Ethanol as previously described and administered 1 hour before pain induction. Each treatment group, except for controls comprising at least 30 animals, was composed of at least 6 animals. Fifteen or sixty minutes later, depending on the route selected for drug administration, the mice were injected i.p. with 10 ml/kg of 0.6% acetic acid and the number of visceral pain related behaviors (writhing, stretching, contractions of the abdomen accompanied by an elongation of the body and extension of the hind limbs) is counted over a period of 5 minutes, starting 5 minutes after the acetic acid administration. These visceral pain related behaviors are globally defined as writhing responses (WR). The results are expressed as mean number of writhing responses±SEM. Data were analyzed using analysis of variance (ANOVA) followed by post-hoc Fisher test. A value of p<0.05 was considered to be statistically significant and is indicated on the figure by an asterisk over the relevant treatment group.
The following results were obtained at 2 mg/kg i.v. of test compounds or, in the case of the study performed with cannabinoid receptor antagonists, 1 mg/kg test compound or antagonist alone and 1 mg/kg test compound+1 mg/kg antagonist. In a separate study, it was shown that analgesic activity of compounds of the invention was dose related.

IL-1β = assay: Real-time RT-PCR gene expression in CNS of MOG induced EAE: IL-1β; format: in vivo, mouse
Protocol: (§1) Total RNA is prepared using SV total RNA isolation system (Promega). The brains and spinal cords, which were removed on day 31 from five animals treated with vehicle (i.e. untreated) or 40 mg/kg p.o. of compound 18F (i.e. treated) in the MOG-induced EAE study, were homogenized in lysis buffer. The lysates were transferred to an RNA isolation column, treated with DNAse, washed and eluted according to kit instructions. RNA concentrations were determined using GeneQuant II (Pharmacia-Amersham). Complementary DNA (cDNA) was synthesized from total RNA using […] II reverse transcriptase (Life Technologies). 2 μg of total RNA were combined with an oligo (dT)15 primer, 0.5 mM dNTP mix, 8 units of reverse transcriptase and other reaction components up to a final volume of 20 μl, according to the kit instructions. The reaction mixture was incubated at 42° C. for 45 min and inactivated at 70° C. for 15 minutes. Quantitative real-time RT-PCR included 1 μl of the cDNA, 300 nM of the appropriate forward and reverse primers (according to the gene monitored) and 7.5 μl of the reaction mix containing buffer, nucleotides, Taq polymerase and SYBER green (SYBER Green master mix, Applied Biosystems), in a total reaction volume of 15 μl. Gene amplification was obtained using the GeneAmp 5700 sequence detection system (Applied Biosystems). […] During each annealing step, the amount of the amplified product was measured by the fluorescence of the double strand DNA binding dye, SYBER Green. The cycle of threshold (CT), representing the PCR cycle at which an increase in fluorescence above a baseline signal can be first detected, was determined for each product. […] Results were expressed as fold increase of gene expression in treated or untreated animals above the naive animals. […]
The results expressed as folds gene expression over naive animals (following normalization to Cyclophilin) are compiled in the following table. […] Statistical significance was analyzed by unpaired two-tailed t-test and one asterisk (*) indicates statistical significance of p<0.05, whereas ** indicates statistical significance of p<0.01.

CB2 = assay: Real-time RT-PCR gene expression in CNS of MOG induced EAE: CB2; format: in vivo, mouse; details: 40 mg/kg p.o., day 31, over naive animals
Protocol: as §1, with “2 μg of total RNA were combined with an oligo (dT)15 primer, 0.5 mM dNTP mix, 8 units of reverse transcriptase and other reaction components up to a final volume of 20 μl, according to the kit instructions. The reaction mixture was incubated at 42° C. for 45 min and inactivated at 70° C. for 15 minutes.” left out, “μl.” for “μl. Gene amplification was obtained using the GeneAmp 5700 sequence detection system (Applied Biosystems).”

[1] = system: chronic constriction induced neuropathic pain; assay: Chronic constriction induced neuropathic pain (Von Frey filaments); format: in vivo, Sprague-Dawley rats
From the text: A peripheral monopathy was induced in the right hind limb of rats following a chronic constriction of the sciatic nerve according to Bennet et al. [Bennet, G. J. & Xie, Y-K., Pain 33: 87-107, 1988]. The development of mechanical allodyna was monitored using an established behavioral test (Von Frey filaments).
Pre-surgery baseline values were ascertained as the mean of 2 pre-surgery values. Once the baseline values had been established, the animals were surgically prepared by constricting the right sciatic nerve with 4 chromic cat gut loose ligatures. On day 11 post-operation, the animals that have developed mechanical allodyna were arbitrarily allocated to the various treatment groups based on the pre-surgery values.
The design was randomized, performed in a masked fashion as to whether drug or vehicle is being given. The animals, male Sprague-Dawley rats (average body weight 240-290 g, Harlan, Israel), were allowed to acclimatize to the behavioral testing equipment prior to testing. […] The filaments were applied in ascending order starting with the weakest force and the withdrawal threshold for both the ipsilateral and contralateral hind paws was evaluated. […] The withdrawal threshold is defined as being the lowest force of two or more consecutive Von Frey's filaments to elicit a reflex withdrawal response (i.e. a brief paw flick) and is measured in grams.

For `CCCCCCC(C)(C)c1cc(O)c([C@H]2CC(=O)C3CC2C3(C)C)c(OC(=O)/C=C/C(=O)O)c1` (single isomer, unassigned; (-)) [Compound 18F, (−)-4-{4-[1,1-Dimethylheptyl]-2-fumarate-6-hydroxy-phenyl}-6,6-dimethyl-bicyclo[3.1.1]heptan-2-one], the “number of writhing responses” value (visceral pain; 0.5 mg/kg compound 18F i.v.) was 10, the “reduction of writhing responses as compared to vehicle treated animals” value (visceral pain; 0.5 mg/kg i.v.) was 64% and the “number of writhing responses” value (visceral pain; 1 mg/kg compound 18F i.v.) was 9. The “inhibition of the number of writhing responses” value (visceral pain; 1 mg/kg i.v.) was 71%, the “effect of addition of CB1 antagonist on analgesic activity” value (visceral pain; 1 mg/kg i.v. + 1 mg/kg SR141716A) was “only partially reversed” and the “effect of addition of CB2 antagonist on analgesic activity” value (visceral pain; 1 mg/kg i.v. + 1 mg/kg SR144528) was “significantly reversed”. The “inhibition of writhing responses as compared to vehicle treated group” value (visceral pain; 2 mg/kg i.v.) was 94%, the “reduction of writhing responses as compared to vehicle treated animals” value (visceral pain; 2 mg/kg i.v.) was 98% and the “inhibition of writhing responses” value (visceral pain; 10 mg/kg p.o. in CREMOPHOR®:Ethanol) was 71%. The “inhibition of pain response as compared to untreated animals” value (visceral pain; 10 mg/kg p.o. in phosphate buffer) was 61%, the “dose from which reduction of writhing responses was significant” value (visceral pain; p.o. in phosphate buffer) was 10 mg/kg and the “inhibition of writhing responses” value (visceral pain; p.o. in phosphate buffer, highest dose tested (5 to 60 mg/kg)) was 93%. For the same molecule, the “Fold gene expression IL-1β, Brain, Treated” value (IL-1β; 40 mg/kg p.o., day 31, over naive animals, untreated 5.5) was 3* fold, the “Fold gene expression IL-1β, Spinal Cord, Treated” value (IL-1β; 40 mg/kg p.o., day 31, over naive animals, untreated 11) was 4* fold and the “IL-1β overexpression in brain and spinal cord” value (IL-1β; treated p.o., untreated 5 to 11-fold) was 3-4 fold. The “Fold gene expression CB2, Spinal Cord, Treated” value (CB2) was 2 fold, the “Fold gene expression CB2, Brain, Treated” value (CB2; untreated −13) was 1* fold and the “effect on neuropathic pain” value ([1]; 20 mg/kg p.o.) was “little effect”. The “effect on neuropathic pain” value ([1]; 40 mg/kg p.o.) was “as strong as 5 mg/kg morphine administered subcutaneously”.
